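These data come from cells grown in 96-well plates and exposed to compound for 48 hours at five concentrations. At the TGI there is no net growth.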
Legend:
Experiment in all cases: NCI tumour cell line growth inhibition, 48 h
RXF 393 renal = test system: RXF 393 renal
KM20L2 colon = test system: KM20L2 colon
HOP-92 NSCLC = test system: HOP-92 NSCLC
DMS 114 small cell lung = test system: DMS 114 small cell lung
TK-10 renal = test system: TK-10 renal
OVCAR-8 ovarian = test system: OVCAR-8 ovarian
SNB-19 CNS = test system: SNB-19 CNS
KM12 colon = test system: KM12 colon
OVCAR-3 ovarian = test system: OVCAR-3 ovarian
NCI-H522 lung = test system: NCI-H522 lung
SW-620 colon = test system: SW-620 colon
RXF-631 renal = test system: RXF-631 renal
U251 CNS = test system: U251 CNS
A498 renal = test system: A498 renal
UACC-257 melanoma = test system: UACC-257 melanoma
LXFL 529 NSCLC = test system: LXFL 529 NSCLC
SK-OV-3 ovarian = test system: SK-OV-3 ovarian
NCI/ADR-RES ovarian = test system: NCI/ADR-RES ovarian
SF-539 CNS = test system: SF-539 CNS
NCI-H23 lung = test system: NCI-H23 lung
HOP-62 NSCLC = test system: HOP-62 NSCLC
HOP-18 NSCLC = test system: HOP-18 NSCLC
UO-31 renal = test system: UO-31 renal
SF-268 CNS = test system: SF-268 CNS
HCC-2998 colon = test system: HCC-2998 colon
COLO 205 colon = test system: COLO 205 colon
MCF7 breast = test system: MCF7 breast
OVCAR-5 ovarian = test system: OVCAR-5 ovarian
NCI-H460 lung = test system: NCI-H460 lung
SN12C renal = test system: SN12C renal
SNB-78 CNS = test system: SNB-78 CNS
DMS 273 small cell lung = test system: DMS 273 small cell lung
P388 leukemia = test system: P388 leukemia
IGROV1 ovarian = test system: IGROV1 ovarian
M19-MEL melanoma = test system: M19-MEL melanoma
EKVX NSCLC = test system: EKVX NSCLC
DLD-1 colon = test system: DLD-1 colon
SK-MEL-2 melanoma = test system: SK-MEL-2 melanoma
ACHN renal = test system: ACHN renal
MALME-3M melanoma = test system: MALME-3M melanoma
SN12K1 renal = test system: SN12K1 renal
SK-MEL-5 melanoma = test system: SK-MEL-5 melanoma
HCT-15 colon = test system: HCT-15 colon
MOLT-4 leukemia = test system: MOLT-4 leukemia
UACC-62 melanoma = test system: UACC-62 melanoma
A549 NSCLC = test system: A549 NSCLC
SF-295 CNS = test system: SF-295 CNS
CCRF-CEM leukemia = test system: CCRF-CEM leukemia
CAKI-1 renal = test system: CAKI-1 renal
HCT-116 colon = test system: HCT-116 colon
SK-MEL-28 melanoma = test system: SK-MEL-28 melanoma
RPMI-8226 leukemia = test system: RPMI-8226 leukemia
HL-60(TB) leukemia = test system: HL-60(TB) leukemia
HT29 colon = test system: HT29 colon
K-562 leukemia = test system: K-562 leukemia
NCI-H226 lung = test system: NCI-H226 lung
OVCAR-4 ovarian = test system: OVCAR-4 ovarian
LOX IMVI melanoma = test system: LOX IMVI melanoma
M14 melanoma = test system: M14 melanoma
786-0 renal = test system: 786-0 renal
SNB-75 CNS = test system: SNB-75 CNS
P388/ADR leukemia = test system: P388/ADR leukemia
XF 498 CNS = test system: XF 498 CNS

Structure (SMILES): CCOC(=O)COc1ccccc1/C=C1\CCC(CN(C)C)C1=O (stereo unspecified)
- TGI (RXF 393 renal): 7.94 µM
- TGI (KM20L2 colon): 30.2 µM
- TGI (HOP-92 NSCLC): 25.8 µM
- TGI (DMS 114 small cell lung): 24.2 µM
- TGI (TK-10 renal): 25.6 µM
- TGI (OVCAR-8 ovarian): 15.1 µM
- TGI (SNB-19 CNS): 20.6 µM
- TGI (KM12 colon): 13.3 µM
- TGI (OVCAR-3 ovarian): 20.6 µM
- TGI (NCI-H522 lung): 6.01 µM
- TGI (SW-620 colon): 6.64 µM
- TGI (RXF-631 renal): 34.4 µM
- TGI (U251 CNS): 14.8 µM
- TGI (A498 renal): 31.3 µM
- TGI (UACC-257 melanoma): 16.3 µM
- TGI (LXFL 529 NSCLC): 6.36 µM
- TGI (SK-OV-3 ovarian): 31.4 µM
- TGI (NCI/ADR-RES ovarian): > 44 µM
- TGI (SF-539 CNS): 26.6 µM
- TGI (NCI-H23 lung): 19.3 µM
- TGI (HOP-62 NSCLC): 35.8 µM
- TGI (HOP-18 NSCLC): 37.9 µM
- TGI (UO-31 renal): 29.9 µM
- TGI (SF-268 CNS): 12.7 µM
- TGI (HCC-2998 colon): 7.98 µM
- TGI (COLO 205 colon): 11.1 µM
- TGI (MCF7 breast): 19.8 µM
- TGI (OVCAR-5 ovarian): 32.4 µM
- TGI (NCI-H460 lung): 33.7 µM
- TGI (SN12C renal): 14.1 µM
- TGI (SNB-78 CNS): 62.6 µM
- TGI (DMS 273 small cell lung): 8.17 µM
- TGI (P388 leukemia): 1.54 µM
- TGI (IGROV1 ovarian): 30.4 µM
- TGI (M19-MEL melanoma): 8.98 µM
- TGI (EKVX NSCLC): 34.7 µM
- TGI (DLD-1 colon): 12.2 µM
- TGI (SK-MEL-2 melanoma): 24.7 µM
- TGI (ACHN renal): 26.9 µM
- TGI (MALME-3M melanoma): 12 µM
- TGI (SN12K1 renal): 3.47 µM
- TGI (SK-MEL-5 melanoma): 22.4 µM
- TGI (HCT-15 colon): 9.86 µM
- TGI (MOLT-4 leukemia): 4.61 µM
- TGI (UACC-62 melanoma): 17.4 µM
- TGI (A549 NSCLC): 42.8 µM
- TGI (SF-295 CNS): 35.5 µM
- TGI (CCRF-CEM leukemia): 8.42 µM
- TGI (CAKI-1 renal): 10.9 µM
- TGI (HCT-116 colon): 9.36 µM
- TGI (SK-MEL-28 melanoma): 7.21 µM
- TGI (RPMI-8226 leukemia): 3.48 µM
- TGI (HL-60(TB) leukemia): 2580 nM
- TGI (HT29 colon): 22.6 µM
- TGI (K-562 leukemia): 6.51 µM
- TGI (NCI-H226 lung): 32.8 µM
- TGI (OVCAR-4 ovarian): 31.8 µM
- TGI (LOX IMVI melanoma): 5.43 µM
- TGI (M14 melanoma): 22.6 µM
- TGI (786-0 renal): 11.7 µM
- TGI (SNB-75 CNS): 29.5 µM

Structure (SMILES): Cc1cccc2nc3c(C(=O)NCCN(C)C)cccc3cc12
- TGI (RXF 393 renal): 4.13 µM
- TGI (KM20L2 colon): 4.98 µM
- TGI (HOP-92 NSCLC): 3.99 µM
- TGI (DMS 114 small cell lung): 3.37 µM
- TGI (P388/ADR leukemia): 11.8 µM
- TGI (OVCAR-8 ovarian): 6.58 µM
- TGI (SNB-19 CNS): 5.2 µM
- TGI (KM12 colon): 9.47 µM
- TGI (OVCAR-3 ovarian): 7.5 µM
- TGI (SW-620 colon): 4.49 µM
- TGI (XF 498 CNS): 3.24 µM
- TGI (U251 CNS): 8.63 µM
- TGI (A498 renal): 3.48 µM
- TGI (UACC-257 melanoma): 3.44 µM
- TGI (SK-OV-3 ovarian): 7.9 µM
- TGI (NCI/ADR-RES ovarian): 6.23 µM
- TGI (SF-539 CNS): 4.84 µM
- TGI (NCI-H23 lung): 5.02 µM
- TGI (HOP-62 NSCLC): 4.88 µM
- TGI (HOP-18 NSCLC): 6.64 µM
- TGI (UO-31 renal): 5.44 µM
- TGI (SF-268 CNS): 5.09 µM
- TGI (HCC-2998 colon): 5.36 µM
- TGI (COLO 205 colon): 2.62 µM
- TGI (MCF7 breast): 9.44 µM
- TGI (OVCAR-5 ovarian): 6.59 µM
- TGI (NCI-H460 lung): 4.18 µM
- TGI (SN12C renal): 5.98 µM
- TGI (SNB-78 CNS): 12.6 µM
- TGI (DMS 273 small cell lung): 3.57 µM
- TGI (P388 leukemia): 11.7 µM
- TGI (IGROV1 ovarian): 7.11 µM
- TGI (M19-MEL melanoma): 4.42 µM
- TGI (EKVX NSCLC): 7.06 µM
- TGI (DLD-1 colon): 7.78 µM
- TGI (SK-MEL-2 melanoma): 3.46 µM
- TGI (MALME-3M melanoma): 2.78 µM
- TGI (SN12K1 renal): 5.26 µM
- TGI (SK-MEL-5 melanoma): 3.06 µM
- TGI (HCT-15 colon): 6.68 µM
- TGI (UACC-62 melanoma): 3.38 µM
- TGI (A549 NSCLC): 3.5 µM
- TGI (SF-295 CNS): 4.65 µM
- TGI (CCRF-CEM leukemia): 5.41 µM
- TGI (CAKI-1 renal): 8.49 µM
- TGI (HCT-116 colon): 6.21 µM
- TGI (SK-MEL-28 melanoma): 3.62 µM
- TGI (RPMI-8226 leukemia): 4.19 µM
- TGI (HL-60(TB) leukemia): 3370 nM
- TGI (HT29 colon): 4.54 µM
- TGI (K-562 leukemia): 8.22 µM
- TGI (NCI-H226 lung): 4.65 µM
- TGI (OVCAR-4 ovarian): 7.46 µM
- TGI (LOX IMVI melanoma): 4.76 µM
- TGI (SNB-75 CNS): 6.75 µM

From PubChem BioAssay (NCI)
